# Source: patent publication US11696913B2, “Prolonged ectoparasite-controlling agent for animal” (MITSUI CHEMICALS AGRO, INC., priority 2017, dated 2023)
# Where two headings read alike, the source gives them in different places.
# Legend:
# [1] = test system: Ctenocephalides felis; experiment: Systemic treatment in-vivo test with cat flea on rats; settings: intraperitoneal injection; for inhibition in vivo at 2 mg/kg / inhibition in vivo at 10 mg/kg: Ctenocephalides felis, ip
# Experimental: (§1) Systemic Treatment In-Vivo Test with American Dog Tick Nymph and Cat Flea on Rats
# (§2) Type of study and overall study design: The method is a randomized non-blinded efficacy study in accordance with European animal welfare requirements. Rats (Rattus norvegicus) were randomized based on pre-treatment flea counts. The efficacy of treatment was determined by comparison of the flea and tick counts of different treatment groups versus the placebo-treated control group. The experimental unit was the individual study animal. Method and route of administration: The compound was applied in a suitable solvent and carrier (more specifically, added to glycerol formal; in case of poorly soluble compounds, a solvent mixture with up to 25% by volume of N-methyl pyrrolidone may be used.) considering the individual body weight as an intraperitoneal injection.
# (§3) Experimental infestation: On the day of treatment and weekly thereafter, 30 ticks (D. variabilis nymphs) were released onto the back of each rat, and 30 fleas (C. felis) were released onto the back of each rat 24 h later.
# (§4) Tick and Flea counting: Rats were thoroughly examined and ticks and fleas were manually removed 48 h (±4 h) after tick infestation and 24 h after flea infestation. Live fleas and live attached engorged ticks were counted. In non-evident cases, engorgement status was evaluated by squeezing the tick on a filter paper to find traces of blood as sign for engorgement.
# [2] = test system: Dermacentor variabilis; experiment: Systemic treatment in-vivo test with American dog tick nymph on rats; settings: intraperitoneal injection; for inhibition in vivo at 2 mg/kg / inhibition in vivo at 10 mg/kg: Dermacentor variabilis, ip
# Experimental: as §1, §2, §3, §4
# [3] = test system: Ctenocephalides felis; experiment: Topical treatment in-vivo test with cat flea on rats; settings: topical spot-on
# Experimental: (§5) Topical Treatment In-Vivo Test with American Dog Tick Nymph and Cat Flea on Rats
# (§6) Type of study and overall study design: The method is a randomized non-blinded efficacy study in accordance with European animal welfare requirements. Rats (Rattus norvegicus) were randomized based on pre-treatment flea counts. The efficacy of treatment was determined by comparison of the flea and tick counts of different treatment groups versus the placebo-treated control group. The experimental unit was the individual study animal.
# (§7) Method and route of administration: The compound was applied in a suitable solvent and carrier (more specifically, added to the following mixture: 33.3% by weight propylene carbonate, […] N-methylpyrrolidone, 0.1% by weight BHA, 0.05% by weight BHT) considering the individual body weight as topical spot-on between the shoulder blades directly onto the skin.
# as §3
# (§8) Tick and Flea counting: Rats were thoroughly examined and ticks and fleas were manually removed 48 h (+4 h) after tick infestation and 24 h after flea infestation. Live fleas and live attached engorged ticks were counted. In non-evident cases, engorgement status was evaluated by squeezing the tick on a filter paper to find traces of blood as sign for engorgement.
# [4] = test system: Dermacentor variabilis; experiment: Topical treatment in-vivo test with American dog tick nymph on rats; settings: topical spot-on, 25 mg/kg
# Experimental: as §5, §6, §7, §3, §8
smiles,measurement,setting,value
"O=C(CNC(=O)c1ccc(C2=NOC(c3cc(Cl)cc(C(F)(F)F)c3)(C(F)(F)F)C2)c2ccccc12)NCC(F)(F)F (stereo not drawn) [Afoxolaner, afoxolaner, reference compound]",Geometric mean percent reduction in live flea (Ctenocephalides felis) counts compared to untreated control rats,"[1]; 2 mg/kg, SD 2",69%
same,Geometric mean percent reduction in live flea (Ctenocephalides felis) counts compared to untreated control rats,"[1]; 2 mg/kg, SD 9",20%
same,Geometric mean percent reduction in live flea (Ctenocephalides felis) counts compared to untreated control rats,"[1]; 2 mg/kg, SD 16",48%
same,Geometric mean percent reduction in live flea (Ctenocephalides felis) counts compared to untreated control rats,"[1]; 10 mg/kg, SD 2",100%
same,Geometric mean percent reduction in live flea (Ctenocephalides felis) counts compared to untreated control rats,"[1]; 10 mg/kg, SD 9",97%
same,Geometric mean percent reduction in live flea (Ctenocephalides felis) counts compared to untreated control rats,"[1]; 10 mg/kg, SD 16",60%
same,Geometric mean percent reduction in live flea (Ctenocephalides felis) counts compared to untreated control rats,"[1]; 10 mg/kg, SD 23",0%
same,Geometric mean percent reduction in live tick (Dermacentor variabilis) counts compared to untreated control rats,"[2]; 2 mg/kg, SD 2",86%
same,Geometric mean percent reduction in live tick (Dermacentor variabilis) counts compared to untreated control rats,"[2]; 2 mg/kg, SD 9",53%
same,Geometric mean percent reduction in live tick (Dermacentor variabilis) counts compared to untreated control rats,"[2]; 2 mg/kg, SD 16",5%
same,Geometric mean percent reduction in live tick (Dermacentor variabilis) counts compared to untreated control rats,"[2]; 10 mg/kg, SD 2",100%
same,Geometric mean percent reduction in live tick (Dermacentor variabilis) counts compared to untreated control rats,"[2]; 10 mg/kg, SD 9",10%
same,Geometric mean percent reduction in live tick (Dermacentor variabilis) counts compared to untreated control rats,"[2]; 10 mg/kg, SD 16",78%
same,Geometric mean percent reduction in live tick (Dermacentor variabilis) counts compared to untreated control rats,"[2]; 10 mg/kg, SD 23",0%
same,Geometric mean percent reduction in live flea (Ctenocephalides felis) counts compared to untreated control rats,"[3]; 10 mg/kg, SD 2",100%
same,Geometric mean percent reduction in live flea (Ctenocephalides felis) counts compared to untreated control rats,"[3]; 10 mg/kg, SD 9",99%
same,Geometric mean percent reduction in live flea (Ctenocephalides felis) counts compared to untreated control rats,"[3]; 10 mg/kg, SD 16",51%
same,Geometric mean percent reduction in live flea (Ctenocephalides felis) counts compared to untreated control rats,"[3]; 10 mg/kg, SD 23",16%
"CN(C(=O)c1ccccc1)c1cccc(C(=O)Nc2c(Br)cc(C(F)(C(F)(F)F)C(F)(F)F)cc2C(F)(F)F)c1F [Compound (B), reference compound]",inhibition in vivo at 2 mg/kg,"[1]; 2 mg/kg, SD 2, read-out: Geometric mean percent reduction in live flea (Ctenocephalides felis) counts compared to untreated control rats",97%
same,inhibition in vivo at 2 mg/kg,"[1]; 2 mg/kg, SD 9, read-out: Geometric mean percent reduction in live flea (Ctenocephalides felis) counts compared to untreated control rats",32%
same,inhibition in vivo at 10 mg/kg,"[1]; 10 mg/kg, SD 2, read-out: Geometric mean percent reduction in live flea (Ctenocephalides felis) counts compared to untreated control rats",100%
same,inhibition in vivo at 10 mg/kg,"[1]; 10 mg/kg, SD 9, read-out: Geometric mean percent reduction in live flea (Ctenocephalides felis) counts compared to untreated control rats",53%
same,inhibition in vivo at 10 mg/kg,"[1]; 10 mg/kg, SD 16, read-out: Geometric mean percent reduction in live flea (Ctenocephalides felis) counts compared to untreated control rats",6%
same,inhibition in vivo at 2 mg/kg,"[2]; 2 mg/kg, SD 2, read-out: Geometric mean percent reduction in live tick (Dermacentor variabilis) counts compared to untreated control rats",75%
same,inhibition in vivo at 2 mg/kg,"[2]; 2 mg/kg, SD 9, read-out: Geometric mean percent reduction in live tick (Dermacentor variabilis) counts compared to untreated control rats",63%
same,inhibition in vivo at 2 mg/kg,"[2]; 2 mg/kg, SD 16, read-out: Geometric mean percent reduction in live tick (Dermacentor variabilis) counts compared to untreated control rats",0%
same,inhibition in vivo at 10 mg/kg,"[2]; 10 mg/kg, SD 2, read-out: Geometric mean percent reduction in live tick (Dermacentor variabilis) counts compared to untreated control rats",100%
same,inhibition in vivo at 10 mg/kg,"[2]; 10 mg/kg, SD 9, read-out: Geometric mean percent reduction in live tick (Dermacentor variabilis) counts compared to untreated control rats",11%
same,inhibition in vivo at 10 mg/kg,"[2]; 10 mg/kg, SD 16, read-out: Geometric mean percent reduction in live tick (Dermacentor variabilis) counts compared to untreated control rats",2%
same,Geometric mean percent reduction in live flea (Ctenocephalides felis) counts compared to untreated control rats,"[3]; 25 mg/kg, SD 2",84%
same,Geometric mean percent reduction in live flea (Ctenocephalides felis) counts compared to untreated control rats,"[3]; 25 mg/kg, SD 9",72%
same,Geometric mean percent reduction in live flea (Ctenocephalides felis) counts compared to untreated control rats,"[3]; 25 mg/kg, SD 16",45%
same,Geometric mean percent reduction in live tick (Dermacentor variabilis) counts compared to untreated control rats,[4]; SD 2,58%
same,Geometric mean percent reduction in live tick (Dermacentor variabilis) counts compared to untreated control rats,[4]; SD 9,85%
same,Geometric mean percent reduction in live tick (Dermacentor variabilis) counts compared to untreated control rats,[4]; SD 16,65%
same,Geometric mean percent reduction in live tick (Dermacentor variabilis) counts compared to untreated control rats,[4]; SD 23,4%
